Results: the NIST ThermoML archive (doi:10.1021/je2002495)
Numbers after ± are expanded uncertainties.

Key:
[1] = Liquid; for mass density: 298.15 K, 101.33 kPa, Pycnometric method
[2] = excess molar enthalpy (molar enthalpy of mixing); xn = mol fraction of the nth substance listed; settings: 298.15 K, 101 kPa, Liquid, Calvet calorimetry

| Structure (SMILES) | mass density [1] [kg/m3] | Normal boiling temperature ([1]; Distillation) [°C] | excess molar enthalpy ([2]; x1 = 0.095) [kcal/mol] | excess molar enthalpy ([2]; x1 = 0.199) [kcal/mol] | excess molar enthalpy ([2]; x1 = 0.298) [kcal/mol] | excess molar enthalpy ([2]; x1 = 0.403) [kcal/mol] | excess molar enthalpy ([2]; x1 = 0.505) [kcal/mol] | excess molar enthalpy ([2]; x1 = 0.601) [kcal/mol] | excess molar enthalpy ([2]; x1 = 0.703) [kcal/mol] | excess molar enthalpy ([2]; x1 = 0.807) [kcal/mol] | excess molar enthalpy ([2]; x1 = 0.904) [kcal/mol] |
| --- | --- | --- | --- | --- | --- | --- | --- | --- | --- | --- | --- |
| c1ccncc1 [pyridine] | 981.3 ± 0.9 | 114.8 ± 1.1 | – | – | – | – | – | – | – | – | – |
| O [water] | 996.5 ± 0.9 | – | – | – | – | – | – | – | – | – | – |
| c1ccncc1 [pyridine] + O | – | – | -0.0945 ± 0.00574 | -0.207 ± 0.0124 | -0.261 ± 0.0158 | -0.294 ± 0.0177 | -0.306 ± 0.0184 | -0.295 ± 0.0179 | -0.27 ± 0.0163 | -0.208 ± 0.0127 | -0.0813 ± 0.00502 |
